Results reported in a melting point compilation (Tetko et al.; mined from patent text by program, amines drawn as free bases though some values may be those of a salt).

melting point [°C] | Structure (SMILES)
350 to 351 | Cn1nnnc1-c1cnc2cc(Cl)ccc2c1O
113 to 115 | COc1ccc2oc(C(=O)C34CC5CC(CC(C5)C3)C4)cc2c1
89 to 90 | CC(O)c1cccc2cccc(O)c12 (stereo not drawn)
217 | CCC1OC(=O)N(CCc2ccc(NC(=O)c3sc(C)nc3C)cc2)N=C1c1ccc(OC)c(OC)c1 (stereo not drawn)
239 to 241 | O=c1cc2c(nn1-c1ccc(Cl)cc1)-c1cc(Cl)ccc1S(=O)CC2 (stereo not drawn)
82 | CCOC(=O)CC(=O)Nc1ccc(Cl)cc1
43 to 44 | CCCCCCCC(CC(=O)O)CC(=O)O
152 to 155 | CCOC(CNC(=S)Nc1ccn(C)n1)OCC
113 to 115 | COc1cccc2c(=O)c(SC)coc12
68 to 69 | COC(=O)CC(NC(=O)C(C)(C)C)C(C)=O (stereo not drawn)
150 | Cn1c(N=C=O)c(-c2ccccc2)c2cc(Cl)ccc21
240 to 242 | CC(=O)Oc1c(C)cc(NC(=O)Nc2c(-c3ccccc3C)c3cc(Cl)c(C)cc3oc2=O)cc1C
51 | COc1ccc(OCCCCCCCc2cc(C)no2)c([N+](=O)[O-])c1
175 | O=C(NCCOc1ccc(-c2ccccc2)cc1)N[C@@H](Cc1ccccc1)C(=O)O
139 to 140 | CC(NC(=O)c1cccc(I)c1)C(O)c1ccccc1 (stereo not drawn)
136 to 137 | Cc1ccc(S(=O)(=O)N(CCN(CC(=O)Cl)S(=O)(=O)c2ccc(C)cc2)CCN(CC(=O)Cl)S(=O)(=O)c2ccc(C)cc2)cc1
119 to 120 | Nc1ccc(C(=O)OC2CCN(Cc3ccccc3)CC2)cc1
215 to 217 | NS(=O)(=O)c1cccc2c1S(=O)(=O)CC2
238 to 242 | COc1ccc2nc(-n3ccnc3)nc(NCCS(C)=O)c2c1 (stereo not drawn)
181 to 182 | Cn1c(C=O)c(-c2ccccc2)c2ccccc2c1=O
230 to 235 | O=C1NCCN(C(c2ccccc2)(c2ccccc2)c2ccccc2)C1=O
92 to 95 | CCCCOc1cc(CCS(=O)(=O)NC(=O)OCc2ccccc2)n(Cc2ccc(Cl)cc2Cl)n1
113 to 114 | COC(=O)C(C)Nc1nc(Cl)ccc1[N+](=O)[O-] (stereo not drawn)
192 to 194 | O=c1c2cc(O)ccc2oc2cccc(NCCN3CCCC3)c12

melting point [°C] | Structure (SMILES)
181 to 183 | O=C1C=CC(=O)C(C(=O)CCn2sc(Cl)cc2=O)=C1
67 to 69 | COC(=O)C(=Cc1ccccc1Cl)c1ccccc1
> 290 | Cn1ncc(C(=O)O)c1C(=O)Nc1ccn2nc(-c3cccc(F)n3)nc2c1
203 to 207 | NC(=O)NC1CCCc2sccc21 (stereo not drawn)
188 to 189 | COc1cccc(C(=O)Nc2ccc(S(N)(=O)=O)cc2)c1SSc1c(OC)cccc1C(=O)Nc1ccc(S(N)(=O)=O)cc1
> 250 | COc1cc(OC)c(-c2cn[nH]c2)cc1C=CC(=O)c1ccc(C(=O)O)cc1
134 to 136 | Cc1ccc(-c2cccc3c2CC(CNC(=O)OCc2ccccc2)O3)cc1 (stereo not drawn)
232 to 233 | CC1(C)Nc2ccc(Br)cc2C(NC(=NC#N)Nc2ccccc2)C1O (stereo not drawn)
132 to 133 | O=C(Nc1ccccc1)c1ccc(F)c(Nc2ccccc2)c1
106 to 107 | Cc1oc(-c2ccccc2)nc1COc1ccc(Cn2cc(CCC(=O)O)c(OC(C)C)n2)cc1
280 to 281 | CSC1=NN=C(c2ccc([N+](=O)[O-])cc2)c2cc3c(cc2C1)OCO3
149 to 151 | COc1ccc(-c2cc(OC)c(OC)cc2[N+](=O)[O-])cc1OC
206 to 208 | O=C(NCc1ccccc1)Nc1ccc(Cl)cc1
126 to 128 | Nc1ccc(OCc2ccc3ccccc3n2)cc1
147 to 148 | O=C(O)CCCc1cc(C(c2cc(F)ccc2F)S(=O)(=O)c2ccc(Cl)cc2)c(Cl)cn1 (stereo not drawn)
118 to 119 | Cc1c(Br)c2c(c(C)c1NC(=O)CC(C)(C)C)C(c1ccc(C(C)C)cc1)CO2 (stereo not drawn)
169 to 171 | COC(=O)c1ccc(NC(=O)CNc2ccccc2F)cc1
249 to 251 | CC(C)(C)CC(C)(C)c1ccc(OCCOC(=O)c2ccc(Nc3nc(Cl)nc(Cl)n3)cc2)cc1
58 to 59 | CC(C)(C)OC(=O)N1CCC(CI)CC1
85 to 87 | OC1CSC(Oc2cccnc2F)C(O)C1O (stereo not drawn)
110 to 111 | Cc1oc(CCOc2ccc(CC3SC(=O)NC3=O)cn2)nc1Cc1ccccc1 (stereo not drawn)
273 to 274 | N#CCCc1cc(F)c2ncc(C(=O)NCc3ccc(Cl)cc3)c(O)c2c1
139 to 141 | CCOC(=O)OC1=C(c2ccccc2)C(CCC(=O)O)OC1=O (stereo not drawn)
91 | CCCCCOC(=O)CCNCC(O)COc1ccccc1C#N (stereo not drawn)

melting point [°C] | Structure (SMILES)
35.5 to 37 | O=C1C[C@@H]2O[C@@H](CSc3ccccc3)CN12 (racemic)
> 300 | Cc1c(-c2ccc([N+](=O)[O-])cc2)sc2[nH]c(=O)n(-c3ccccc3)c(=O)c12
34.5 to 35.5 | C#CCC#CCC#CCOc1ccc(C)cc1
210 to 211 | Cc1cccc(C(=O)c2[nH]c3cc(Cl)ccc3c2N)n1
162 to 163 | Cc1cc(CCC(=O)OC(C)(C)C)nc(-c2nc(=O)c3ccc(Cl)cc3s2)c1
59 to 61 | O=[N+]([O-])c1ccc(C=COC=Cc2ccc([N+](=O)[O-])cc2)cc1
238 to 240 | N=C(N)c1ccc(C(=O)N[C@@H](CO)Cc2ccc(OCC(=O)O)cc2)cc1
174 to 176 | O=[N+]([O-])c1c(-c2ccc(Cl)cc2)[nH]c(C(F)(F)F)c1-c1csc(Br)c1
172 to 174 | CCOC(=O)c1cnc2n(c1=O)-c1ccccc1N(C=O)C2
246 to 249 | O=C(O)c1ccc2sc(Cc3cccnc3)cc2c1
71 | C=CC(=O)OCCOc1ccc(C(=O)C(C)(C)OC(=O)C=C)cc1
140 to 142 | CCCCC(Sc1cc(C(C)(C)C)c(O)c(C(C)(C)C)c1)C(=O)O (stereo not drawn)
244 to 246 | COC(=O)c1ccc(C23CC4CC(CC(C4)C2)C3)c(O)c1
166 to 169 | Cc1ccc(-n2nc3c(cc2=O)CCc2sc(CO)cc2-3)cc1
94 to 95 | CN1C[C@@H](C(=O)OCc2ccccc2)NC1=O
150 to 152 | CC1(C)OC(=O)C(Oc2ccc3sccc3c2)=C1c1ccc(S(C)(=O)=O)cc1
93 to 94.5 | Cc1ccc(C)n1N(C)c1ccc(Cl)nn1
205 to 206 | CC(C)c1cc2c(cc1Oc1ccc(C(=O)O)cc1)C(C)(C)CCC2(C)C
142 to 145 | Cc1c(C)c(C)c2c(c1C)C=CC(C)(COc1ccc([N+](=O)[O-])cc1)O2 (stereo not drawn)
122 to 126 | CCN(CC)CCCOc1ccc(C(=O)c2oc3ccccc3c2-c2ccccc2)cc1
194 to 197 | CN1CCC(C(=O)N(C)c2ccc(C(=O)N3CCCCc4ccccc43)cc2)CC1
72 to 73 | COCCCc1cc(N(C)Cc2ccc(-c3ccc(C(F)(F)F)cc3)nc2C)ccc1OCC(=O)O
121 to 124 | CCc1nc2ccccc2n1C1CCN(CCCNc2ccc(F)cc2)CC1
149 to 150 | Cc1oc(-c2ccccc2)nc1COc1cc(COc2nn(C)cc2CC(=O)O)on1

melting point [°C] | Structure (SMILES)
97 to 98 | CCCCCCCCCCC(=O)C(=O)N[C@@H](CCC(=O)O)C(=O)O
251 to 253 | CC(C)(C)c1ccc(C(=O)Nc2cn3cc(-c4cnco4)ccc3n2)cn1
175 | CC1(C)Oc2ccc(Br)cc2C(n2ccccc2=O)=C1CBr
139 to 140 | Cc1oc(-c2ccco2)nc1COc1ccc(CC(=O)O)cc1
189 to 190 | CCS(=O)(=O)CCC(=O)NNC(=O)N1Cc2cc(Cl)ccc2Oc2ccc(Cl)cc21
94 to 96 | CC[C@H](C)C(OCc1ccccc1F)[C@H]1[C@H]([N+](=O)[O-])[C@@H](c2cccs2)N[C@@H]1C(=O)NCCC(=O)O (stereo partly drawn)
192 to 194 | O=C(OCCc1ccc([N+](=O)[O-])cc1)C1Cc2c(ccc3[nH]ccc23)N1 (stereo not drawn)
111 | CC(=O)OC1CSC(Oc2cccc(-c3ccsc3)c2)C(OC(C)=O)C1OC(C)=O (stereo not drawn)
158 to 160 | O=C(O)CCc1ccc(C(c2cc(F)ccc2F)S(=O)(=O)c2ccc(Cl)cc2)nc1 (stereo not drawn)
148 to 151 | Cc1ccccc1-c1cnc2c(C(F)(F)F)cccc2c1-c1cccc(N)c1
147 | CCOC(=O)C1=C(N)NC(N)=C(C(=O)OCC)C1c1ccccc1OC
240 to 242 | COc1c(N2CCC(N)C(C)C2)c(F)cc2c(=O)c(C(=O)O)cn(C3CC3)c12 (stereo not drawn)
125 to 126 | CC(C)(C)c1cc(C(=O)C(=O)O)cc(C(C)(C)C)c1O
120 to 121 | CC1(C)C(=O)Oc2ccc(OS(C)(=O)=O)cc21
120 to 122 | CCCCNC(=O)[C@H](C)C[C@H](O)[C@H](CC1CCCCC1)NC(=O)[C@H](Cc1cscn1)NC(=O)[C@@H](CC(=O)N1CCCCC1)Cc1ccc(OC)cc1
150 to 151 | COc1cccc(CCc2c(CCNC(=O)CCCCC(=O)NCCc3ccccc3)ccc(OC)c2OC)c1
117 to 118 | O=Cc1nn(-c2ccc(Cl)cc2)c2c1CCCC2
105 to 108 | COC(=O)NCCOC(=O)COc1cc(Oc2ccc(C(F)(F)F)cc2Cl)ccc1[N+](=O)[O-]
178 to 180 | COC(=O)C1=C(CO)NC(C)=C(C(=O)OCC(C)(C)C)C1c1ccccc1C#N (stereo not drawn)
130 | CCCCc1nc2ccccc2n1Cc1ccc(C#N)cc1
> 300 | O=C(O)c1cc2c(Cl)ccc(Br)c2s1
85 to 97 | CCCNC(=O)C(CC)Cc1ccc2c(c1)c(Cc1ccc(C(=O)O)cc1OC)cn2CCC (stereo not drawn)

Structure (SMILES) | melting point [°C]
CCCN(CCC)C1Cc2cccc3c2N(C1)C(=O)C3 (stereo not drawn) | 86 to 88
CN(C)C(=O)OC1c2nccnc2C(=O)N1c1ccc2ccc(Cl)nc2n1 (stereo not drawn) | 270
Cc1ccccc1-n1c(Cn2cnc3c(N)ncnc32)nc2cccc(Cl)c2c1=O | 262 to 266
CCn1cc(C(=O)O)c(=O)c2cc(F)c(N3CCNCC3)c(C)c21 | 153 to 156
